A short description of data set [1]: Chromatographic hydrophobicity index on C18 column (lipophilicity). Format: physicochemical.
Description: (§1) We began with an assay for lipophilicity, affinity for phospholipids (for 40 compounds), and drug binding to human serum albumin (HSA) (for 20 compounds), using chromatographic protocols developed by Valko [46] and implemented in our laboratory [47]. […] These methods allowed the determination of chromatographic hydrophobicity indices (CHIs), binding to HSA (%HSA), and phospholipids (CHIIAM) using a single-gradient elution experiment and comparison to reference substances.
Data set [2] is described as follows: Affinity to phospholipids, IAM column (CHI IAM). Type of data set: physicochemical. As to conditions: IAM.PC.DD2 column, pH 7.4.
Description: as §1
Data set [3] deals with MCF7 breast carcinoma cell line. The experiment in a line: Antiproliferative activity (MTS), MCF7. The following applies: Homo sapiens, MCF7, 72 h, read-out: IC50 Values MCF7.
Data set [4] addresses T1, human 5-HT6 (Homo sapiens, UniProt P50406).
T1 construct: expressed in transfected cells
The experiment in a line: [3H]-LSD radioligand binding assay, 5-HT6R. As to conditions: HEK293 expressing human 5-HT6R, read-out: 5-HT6 Ki. On the procedure: Next, the ligands’ affinity for the 5-HT6 receptors was evaluated in the [^3H]-LSD radioligand binding assay. Experiments were performed in a stable HEK293 cell line expressing the human 5-HT6R.
The pellets were stored at −80 °C.

For data set [5], the system named is LN-229 glioblastoma cell line. As to the kind of experiment: Antiproliferative activity (MTS), LN-229. As to conditions: Homo sapiens, LN-229, 72 h, read-out: IC50 Values LN-229.
Data set [6] deals with U-251 glioblastoma cells. As to the kind of experiment: Antiproliferative activity (MTS), U-251. The following applies: Homo sapiens, U-251, 72 h, read-out: IC50 Values U-251.
In data set [7] the test system is AsPC-1 pancreas adenocarcinoma cell line. As to the kind of experiment: Antiproliferative activity (MTS), AsPC-1. As to conditions: Homo sapiens, ASPC1, 72 h, read-out: IC50 Values AsPC-1.
The target in data set [8] is human serum albumin (HSA) (Homo sapiens, UniProt P02768). As to the kind of experiment: Binding to HSA, Chiralpak HSA column. As to conditions: Chiralpak HSA column. From the text: We began with an assay for lipophilicity, affinity for phospholipids (for 40 compounds), and drug binding to human serum albumin (HSA) (for 20 compounds), using chromatographic protocols developed by Valko [46] and implemented in our laboratory. Compounds with the highest affinity for 5-HT6R and those showing the most promising ADMET parameters, including the possibility of BBB penetration, DDI, and lipophilicity, determined in silico in SwissADME [45], were selected for testing. These methods allowed the determination of chromatographic hydrophobicity indices (CHIs), binding to HSA (%HSA), and phospholipids (CHIIAM) using a single-gradient elution experiment and comparison to reference substances.
The use of columns modified with plasma proteins, such as HSA, also allows for the estimation of binding to HSA, which is the most dominant plasma protein (PP). Binding to PP affects drug pharmacokinetics, such as distribution, half-life, and clearance.
The mobile phase flow rate was 1.5 mL/min, and the column was maintained at 30 °C. • Chiralpak® HSA (50 mm × 4 mm; 5 µm with safety guard column; Daicel Chiral Technologies, West Chester, PA, USA), mobile phase A: 50 mM ammonium acetate, mobile phase B: HPLC-grade isopropanol (VWR International, Leuven, Belgium). For the first 15 min, the linear gradient from 0 to 20% isopropanol was applied and then held at 20% isopropanol for 12 min. In the last 5 min of the sequence, the mobile phase mixture received a pure ammonium acetate solution. The column temperature was held at 30 °C, whereas the flow rate was 0.9 mL/min.
The reference substances for the calibration of HSA, C18, and IAM columns were purchased, respectively: acetanilide, butyrophenone, diclofenac, and octanonophenone (Alfa Aesar, Haverhill, MA, USA); acetophenone, benzimidazole, colchicine, indole, indometacin, paracetamol, and theophylline (Sigma-Aldrich, Steinheim, Germany); nicardipine and nizatidine (Cayman Chemical, Ann Arbor, MI, USA); carbamazepine, heptanophenone, hexanophenone, propiophenone, and valerophenone (Acros Organic, Pittsburg, PA, USA). Before chromatographic experiments, solutes were dissolved in dimethyl sulfoxide (Avantor Performance Materials Poland S.A., Gliwice, Poland) to obtain a 200 µg/mL concentration. The detection was performed in the UV region at the wavelength from 190 nm to 300 nm. The injected volume was 5 μL, and each compound was analyzed in triplicate.

In data set [9] the test system is 1321N1 astrocytoma cell line. As to the kind of experiment: Antiproliferative activity (MTS), 1321N1. As to conditions: Homo sapiens, 1321-N1, 72 h, read-out: IC50 Values 1321N1.
Data set [10] has as its system U87MG glioblastoma cells. The experiment in a line: Antiproliferative activity (MTS), U87MG. As to conditions: Homo sapiens, U-87 MG, 72 h, read-out: IC50 Values U87MG.
Data set [11] is described as follows: PAMPA permeability test. The following applies: PBS pH 7.4, 5 h, room temperature. Format: in vitro ADME. On the procedure: This test allows the determination of the compound’s passive diffusion through biological membranes.
Precoated PAMPA Plate System Gentest was obtained from Corning (Tewksbury, MA, USA). Test compounds and caffeine solutions (200 µM) were prepared in a PBS buffer (pH = 7.4) and then added to the PAMPA plate. The plate was incubated at room temperature for 5 h without agitation. Then, 150 µL was aspirated from both acceptor (A) and donor (D) wells and then diluted with a 150 µL internal standard (IS) solution. The concentrations of the tested compounds in wells A and D were estimated using an LC/MS Waters ACQUITY™ TQD system with a TQ detector (Waters, Milford, CT, USA). The values of Pe were estimated according to the exact formulas provided by Corning and previously described in the literature.
4. Absorption – PAMPA permeability test
*Permeability coefficient. Compound is permeable if Pe≥1.5×10-6 cm/s
**CFN = caffeine, well-permeable control
UPLC of Caffeine solution in PBS (pH=7.4) after 5h of incubation: acceptor well
(above), donor well (below). IS – internal standard.
UPLC of PR 68 solution in PBS (pH=7.4) after 5h of incubation: acceptor well (above),
donor well (below). IS – internal standard. […]

human serum albumin (HSA), sequence (P02768 25-609): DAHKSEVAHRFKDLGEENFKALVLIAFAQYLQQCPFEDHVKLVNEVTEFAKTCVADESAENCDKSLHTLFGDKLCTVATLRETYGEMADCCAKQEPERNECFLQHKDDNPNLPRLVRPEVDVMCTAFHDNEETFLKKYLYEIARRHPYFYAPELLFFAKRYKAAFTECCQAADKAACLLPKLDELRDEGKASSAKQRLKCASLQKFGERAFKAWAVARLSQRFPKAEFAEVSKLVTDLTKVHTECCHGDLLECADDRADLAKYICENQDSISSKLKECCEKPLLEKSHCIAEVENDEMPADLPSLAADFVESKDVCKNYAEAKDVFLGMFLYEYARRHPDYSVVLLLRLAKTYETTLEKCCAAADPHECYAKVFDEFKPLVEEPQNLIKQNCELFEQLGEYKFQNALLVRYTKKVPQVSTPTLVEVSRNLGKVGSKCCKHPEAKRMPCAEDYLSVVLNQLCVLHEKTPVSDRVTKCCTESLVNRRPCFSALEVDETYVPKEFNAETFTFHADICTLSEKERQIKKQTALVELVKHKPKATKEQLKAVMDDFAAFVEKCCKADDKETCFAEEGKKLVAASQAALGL
T1 sequence (P50406 whole entry): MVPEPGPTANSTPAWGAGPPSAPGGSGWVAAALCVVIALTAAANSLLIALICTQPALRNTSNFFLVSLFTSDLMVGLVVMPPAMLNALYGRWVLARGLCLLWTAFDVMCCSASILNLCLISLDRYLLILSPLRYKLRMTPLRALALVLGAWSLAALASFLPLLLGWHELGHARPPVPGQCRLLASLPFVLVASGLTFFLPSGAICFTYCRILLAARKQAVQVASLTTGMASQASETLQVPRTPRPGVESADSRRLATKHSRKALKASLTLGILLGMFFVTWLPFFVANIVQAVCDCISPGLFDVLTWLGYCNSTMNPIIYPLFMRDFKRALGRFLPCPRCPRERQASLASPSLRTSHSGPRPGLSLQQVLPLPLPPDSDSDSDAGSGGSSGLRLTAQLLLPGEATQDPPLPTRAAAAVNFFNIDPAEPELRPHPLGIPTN

Molecule `O=S(=O)(NC1=Nc2ccccc2CN1)c1ccc2c(Cl)cccc2c1` [PR 30, 5-chloro-N-(3,4-dihydroquinazolin-2-yl)naphthalene-2-sulfonamide] returned a melting point of 192 to 195 °C. In addition, in data set [1], the “CHI C18 pH 2.6” value was 99.1, the “CHI C18 pH 7.4” value came to 97.7 and the “CHI C18 pH 10.5” value is reported as 100.4. Moreover, in data set [2], the “CHI IAM” value turned out to be 45.2. Moreover, in data set [3], the IC50 was above 25 µM. Moreover, the Ki in data set [4] was determined as 0.972 ± 0.242 µM. In addition, the IC50 in [5] was above 25 µM. Besides, the IC50 in data set [6] was above 25 µM. Further, in data set [7], the IC50 was above 25 µM.

`O=S(=O)(Nc1nc2ccccc2[nH]1)c1cccc2ccccc12` [PR 11, N -(1H-1,3-benzodiazol-2-yl)naphthalene-1-sulfonamide] had a melting point above 315 °C. For the same molecule, in data set [8], the “%HSA” value is 95.7% and the logKHSA worked out at 1.3. The “acid–base properties” value in [1] (comparison of CHI values at different pH levels) is “acidic”. In data set [1], the “CHI C18 pH 2.6” value is 78.8, the “CHI C18 pH 7.4” value is reported as 76.7 and the “CHI C18 pH 10.5” value is on record as 58.4. In addition, the “CHI IAM” value in data set [2] amounted to 39.3. Besides, in [3], the half-maximal inhibitory concentration (IC50) is above 25 µM. The Ki in [4] came to 0.325 ± 0.081 µM. The half-maximal inhibitory concentration (IC50) in data set [9] is above 25 µM. Also, the IC50 in [10] is above 25 µM. Besides, in data set [5], the IC50 is above 25 µM. In addition, in [6], the IC50 is above 25 µM. Moreover, in data set [7], the IC50 was above 25 µM.

In the case of `COc1cccc2c1CNC(NS(=O)(=O)c1cccc3ccccc13)=N2` [PR 58, N -(5-methoxy-3,4-dihydroquinazolin-2-yl)naphthalene-1-sulfonamide], the melting point fell in the range of 245 to 249 °C. In data set [8], the “%HSA” value stood at 97.3% and the logKHSA was found to be 1.4. Moreover, in data set [1], the “CHI C18 pH 2.6” value is recorded as 92.8, the “CHI C18 pH 7.4” value was determined as 90.8 and the “CHI C18 pH 10.5” value is recorded as 96.6. In addition, in data set [2], the “CHI IAM” value stood at 41.4. Also, the IC50 in data set [3] was above 25 µM. For the same molecule, the Ki in data set [4] is 0.172 ± 0.041 µM. Further, the IC50 in [9] is above 25 µM. Also, in [10], the concentration for half-maximal inhibition (IC50) is above 25 µM. Further, the IC50 in data set [5] is above 25 µM. The IC50 in data set [6] was above 25 µM. The IC50 in data set [7] is above 25 µM.

In the case of `CC1NC(NS(=O)(=O)c2ccc3ccccc3c2)=Nc2ccc(Br)cc21` (stereo not drawn) [PR 36, N -(6-bromo-4-methyl-3,4-dihydroquinazolin-2-yl)naphthalene-2-sulfonamide], the IC50 in [3], in data set [9], in [10], in data set [5], in data set [6] and in [7] was above 25 µM each time. Besides, the inhibition constant Ki in [4] is 29.4 ± 7.36 µM.

Consider `O=S(=O)(NC1=Nc2cccc(Cl)c2CN1)c1ccc(Cl)c2ccccc12` [PR 53, 4-chloro-N-(5-chloro-3,4-dihydroquinazolin-2-yl)naphthalene-1-sulfonamide], for which the melting point was in the range of 217 to 223 °C. Besides, in data set [8], the “%HSA” value is 99.5% and the logKHSA was found to be 1.8. For the same molecule, in data set [1], the “CHI C18 pH 2.6” value was 111.2, the “CHI C18 pH 7.4” value came out at 109.2 and the “CHI C18 pH 10.5” value turned out to be 112.5. Also, in data set [2], the “CHI IAM” value worked out at 51.6. The IC50 in data set [3] was above 25 µM. For the same molecule, the Ki in data set [4] stood at 0.189 ± 0.042 µM. Further, in data set [9], the IC50 was above 25 µM. The IC50 in [10] is above 25 µM. Moreover, the half-maximal inhibitory concentration (IC50) in data set [5] was above 25 µM. The IC50 in [6] was above 25 µM. Moreover, the IC50 in data set [7] is above 25 µM.

`O=S(=O)(NC1=Nc2ccccc2CN1)c1cccc(Cl)c1` [PR 19, 3-chloro-N-(3,4-dihydroquinazolin-2-yl)benzene-1-sulfonamide]: the melting point was in the range of 176 to 180 °C. In addition, in [8], the “%HSA” value was determined as 91.3% and the logKHSA was 1.0. In data set [1], the “CHI C18 pH 2.6” value is reported as 83.7, the “CHI C18 pH 7.4” value is listed as 83.2 and the “CHI C18 pH 10.5” value was 87.3. Moreover, the “CHI IAM” value in [2] was determined as 36.6. Besides, in data set [3], the IC50 is above 25 µM. Besides, the Ki in [4] was 0.521 ± 0.13 µM. The IC50 in [9] was above 25 µM. For the same molecule, the IC50 in data set [10] was above 25 µM. Further, the IC50 in data set [5] is above 25 µM. In addition, in [6], the IC50 was above 25 µM. For the same molecule, in [7], the IC50 is above 25 µM.

Take `Cn1c(=O)c2c(ncn2C)n(C)c1=O` [caffeine, reference compound]: in [11] (PAMPA, read-out: PAMPA Pe), the Papp at 5 h, 200 µM amounted to 8.23 ×10⁻⁶ cm/s. For the same molecule, in data set [11], the “PAMPA Pe” value is listed as 8.23 10^−6 cm/s.

Turning to `O=S(=O)(NC1=Nc2ccccc2CCN1)c1cccc2ccccc12` [PR 78, N -(4,5-dihydro-3H-1,3-benzodiazepin-2-yl)naphthalene-1-sulfonamide], the melting point is 178 to 180 °C. For the same molecule, the IC50 in [3] is above 25 µM. The Ki in data set [4] was 0.273 ± 0.068 µM. Further, the IC50 in data set [9] was above 25 µM. Also, the IC50 in [10] was above 25 µM. Moreover, in data set [5], the IC50 is above 25 µM. In addition, the IC50 in data set [6] was above 25 µM. In addition, the IC50 in data set [7] was above 25 µM.

For the origin of these results see PMC11477289, “Low-Basicity 5-HT6 Receptor Ligands from the Group of Cyclic Arylguanidine Derivatives and Their Antiproliferative Activity Evaluation” (International Journal of Molecular Sciences, 2024).
